Data set [1] deals with Brain. In words: Drug uptake in Sprague-Dawley rat in regions outside brain at 0.303 mCi, iv by PET imaging. The data set is classed as ADME, organism-based. The note with it: in vivo.
Data set [2] deals with Brain. In words: Drug uptake in Papio anubis assessed as maximal uptake in brain at 2.33 mCi, iv after 20 mins of injection by PET imaging. The class given is ADME, organism-based. As to conditions: in vivo; call rule not given here.
For data set [3], the system named is Brain. In words: Drug uptake in Papio anubis assessed as retention time in brain at 2.33 mCi, iv by PET imaging. The class given is ADME, organism-based.
The nature of data set [4]: Fraction unbound in Papio Anubis plasma at 2.33 mCi, iv by PET imaging. The class given is ADME, organism-based.
Data set [5] in a line: Octanol-water partition coefficient, log D of the compound at pH 7.4. The class given is physicochemical.
The test system of data set [6] is Brain. In words: Drug uptake in Sprague-Dawley rat assessed as retention time in brain at 0.303 mCi, iv by PET imaging. The data set is classed as ADME, organism-based.
For data set [7], the system named is Brain. Kind of data set: Drug uptake in Sprague-Dawley rat assessed as retention time in brain at 0.99 mCi, iv by PET imaging. The class given is ADME, organism-based.
Data set [8] has as its target T1, 5-hydroxytryptamine receptor 2C (Homo sapiens, UniProt P28335).
T1 sequence (P28335 whole entry): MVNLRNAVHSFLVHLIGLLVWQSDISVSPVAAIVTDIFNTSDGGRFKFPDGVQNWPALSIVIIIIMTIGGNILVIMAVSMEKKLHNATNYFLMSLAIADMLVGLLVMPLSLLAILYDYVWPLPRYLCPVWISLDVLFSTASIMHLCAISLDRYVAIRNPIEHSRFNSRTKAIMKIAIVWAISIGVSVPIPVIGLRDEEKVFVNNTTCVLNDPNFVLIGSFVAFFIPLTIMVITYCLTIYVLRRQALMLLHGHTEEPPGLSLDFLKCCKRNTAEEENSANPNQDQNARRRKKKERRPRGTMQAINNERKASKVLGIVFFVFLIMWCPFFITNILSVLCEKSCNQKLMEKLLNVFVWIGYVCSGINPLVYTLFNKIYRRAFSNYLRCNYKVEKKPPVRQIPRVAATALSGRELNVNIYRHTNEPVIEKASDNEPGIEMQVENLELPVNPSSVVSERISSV
Kind of data set: Displacement of [125I]DOI from human 5-HT2C receptor. In general terms: In a radioligand displacement assay an active substance lowers the binding of a labelled ligand.

One may read the fraction unbound as free concentration divided by total concentration. A lower fraction unbound goes with little free substance. The term logD denotes the decadic logarithm of the distribution of all forms, ionised or not, between an organic phase and buffer at a given pH. Lower therefore signals a more hydrophilic compound. What is called Ki is a measure of affinity in units of concentration, obtained from inhibition or displacement.

Structures are written as SMILES.

For `c1cc2c3c(c1)[C@H]1CCC[C@H]1N3CCN[11CH2]2`, the Drug uptake result with Brain [1] and in the data set with Brain [2] was “Active” each time. The Retention_time is on record as 80 min in the data set with Brain [3] and 60 min in the data set with Brain [6]. In data set [4], the fraction unbound is 0.265. The same compound gave a logD in data set [5] of 1.53.
In the case of `c1cc2c3c(c1)[C@H]1CCC[C@H]1CN3CCN[11CH2]2`, the Retention_time in the data set on Brain [7] turned out to be 60 min.
Turning to `c1cc2c3c(c1)[C@H]1CCC[C@H]1CN3CCNC2` [VABICASERIN], affinity in data set [8] was put at a Ki of 3 nM.

(Values after ChEMBL document CHEMBL3124743, “Imaging evaluation of 5HT2C agonists, [(11)C]WAY-163909 and [(11)C]vabicaserin, formed by Pictet-Spengler cyclization” (J Med Chem, 2014).)
